Experimental findings from PubChem BioAssay AID1794811 are described below.

The experiment concerns the target High affinity choline transporter 1 (Homo sapiens) (UniProt Q9GZV3). Kind of experiment: PubChem AID 1794811. The note with it: HEK-293 JumpIN-SLC5A7, FLIPR membrane potential dye.

High affinity choline transporter 1 (Homo sapiens), sequence (Q9GZV3 whole entry, looked up): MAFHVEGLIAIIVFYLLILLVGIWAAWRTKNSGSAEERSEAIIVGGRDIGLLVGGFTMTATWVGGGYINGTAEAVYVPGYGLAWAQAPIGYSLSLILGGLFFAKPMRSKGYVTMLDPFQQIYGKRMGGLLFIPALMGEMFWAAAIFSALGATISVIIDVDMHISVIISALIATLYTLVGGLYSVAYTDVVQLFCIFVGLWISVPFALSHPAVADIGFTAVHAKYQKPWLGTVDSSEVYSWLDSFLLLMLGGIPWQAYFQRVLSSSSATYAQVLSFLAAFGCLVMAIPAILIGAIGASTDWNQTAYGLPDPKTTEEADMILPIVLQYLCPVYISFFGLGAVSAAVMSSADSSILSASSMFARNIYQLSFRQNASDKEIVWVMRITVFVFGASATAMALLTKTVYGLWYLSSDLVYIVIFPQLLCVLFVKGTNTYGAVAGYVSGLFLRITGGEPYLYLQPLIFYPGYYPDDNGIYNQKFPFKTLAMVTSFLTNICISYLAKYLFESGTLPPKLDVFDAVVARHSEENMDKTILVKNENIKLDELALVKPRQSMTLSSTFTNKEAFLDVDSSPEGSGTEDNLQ

As for `C[N+](C)(C)CCO`, the EC50 (as a rule, the concentration needed to bring the measured effect to its halfway point) was 17 µM.
